Measurements taken from US20220017486A1, “DOCK1-INHIBITING COMPOUND AND USE THEREOF” (KYUSHU UNIVERSITY, NATIONAL UNIVERSITY CORPORATION, priority 2018, published 2022).
“Also recorded” adds a separate entry of the source.

Tests used:
[1] = test system: mouse lung carcinoma cell line (3LL cells); test: Cell invasion inhibition assay (Matrigel invasion chamber); type: cell-based; settings: in words
Summary of the method: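 Matrigel invasion chambers (8 μm pores); cells in serum-free DMEM above, 10% FCS DMEM below, compound in both, 0.2% DMSO final. 3LL (K-Ras G12C), PANC02 and MDA-MB-157 (Rac1 P29S) cultured 22 h (3LL, PANC02) or 48 h (MDA-MB-157) at 37° C. Invaded cells Diff-Quick-stained and counted; % invasion vs DMSO control, % inhibition = 100 − % invasion.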

[2] = test system: mouse lung carcinoma cell line (3LL cells) and mouse pancreatic cancer cell line (PANC02 cells); test: Inhibition of macropinocytosis in cancer cells (TMR-dextran uptake); type: cell-based; settings: in words, 3LL and PANC02 cells
Description: Therefore, this Pharmacological Test evaluated the inhibitory effect of the compounds of the present invention on macropinocytosis in a mouse lung carcinoma cell line (3LL cells) and a mouse pancreatic cancer cell line (PANC02 cells) as a target. Specifically, 150 μL of mouse lung carcinoma cell line (3LL) or mouse pancreatic cancer cell line (PANC02) (4×10^4 cells) was seeded on the glass portion of fibronectin-coated glass-bottom culture dishes. After 16-hour culture at 37° C., the medium was changed to DMEM (serum free), and cultured for another 24 hours to allow the cells to be serum-starved. Subsequently, the medium was changed to 2 mL of serum-free medium containing DMSO alone (control) or DMSO in which each test compound was dissolved, followed by culture for 1 hour for pretreatment. The final concentration of DMSO was adjusted to 0.2 mass %.
DMSO alone (control) or DMSO in which a predetermined concentration of each test compound was dissolved was added in the same manner as above to TMR-dextran (final concentration: 500 μg/mL)-containing DMEM (with 10 mass % FBS), and the thus-obtained medium (180 μL) was added to the cancer cells pretreated as above, followed by incubation at 37° C. for 1 hour. […] The macropinocytosis activity was measured based on the number of TMR-dextran spots per cell. […]

[3] = test system: mouse lung carcinoma cell line (3LL); test: Tumor growth of subcutaneously transplanted mouse lung carcinoma cells; type: in vivo, C57BL/6 mice
Description: The mouse lung carcinoma cell line (3LL) was suspended in 200 μL of PBS(−), and transplanted (5×10^5 cells per mouse) into the dorsal subcutaneous region of C57BL/6 mice (6 weeks old). To a 6:1:1 mixture of PBS/Cremophor EL/ethanol, RT-22 as a representative of the compounds of the present invention was added to a concentration of 0.25 mg/300 μL, and the resulting mixture was loaded into an SMP-300 micro infusion pump (iPRECIO), which was subcutaneously implanted on the previous day of the transplantation, to perform continuous intravenous administration (n=5 mice). The control group was only administered with an equivalent volume of a solvent (a 6:1:1 mixture of PBS/Cremophor EL/ethanol) (n=6 mice). The transverse and longitudinal diameters of the tumor mass were measured over time for a period of 4 weeks from the start of administration, and the tumor volume (V) was calculated according to the formula: V=π/6x√((transverse diameter×longitudinal diameter)^3).

SMILES: COC(=O)c1cc(S(=O)(=O)N2CCCC2)cn1CC(=O)c1ccc(-c2cccc(C(F)(F)F)c2)cc1 [RT-22, methyl 1-(2-oxo-2-(3′-(trifluoromethyl)-[1,1′-biphenyl]-4-yl)ethyl)-4-(pyrrolidin-1-yl-sulfonyl)-1H-pyrrole-2-carboxylate]
- percent cell invasion inhibition compared with TBOPP [1]: higher percent cell invasion inhibition than TBOPP; also recorded: higher than those of TBOPP
- macropinocytosis activity in cancer cells [2]: inhibitory effect on macropinocytosis activity
- tumor size as % of that of the control group ([3]; 3LL s.c. in C57BL/6 mice, continuous intravenous administration, 0.25 mg/300 μL, day 26 to day 29): 64 to 69%
- tumor growth inhibition compared with TBOPP ([3]; in words): more effective in inhibiting tumor growth than TBOPP
